Measured values from article PMC11345841, “Exploring 2-Sulfonylpyrimidine Warheads as Acrylamide Surrogates for Targeted Covalent Inhibition: A BTK Story” (Journal of Medicinal Chemistry, 2024).
Read-outs that look alike come from different tables or passages of the source.

What was measured:
[1] = molecular target: T1, EPHB2 (Homo sapiens, UniProt P29323); assay: KINOMEscan ScanTK; assay type: binding
T1 construct: purchased Eurofins DiscoverX KINOMEscan (scanTK)
T1 sequence (P29323 19-1055): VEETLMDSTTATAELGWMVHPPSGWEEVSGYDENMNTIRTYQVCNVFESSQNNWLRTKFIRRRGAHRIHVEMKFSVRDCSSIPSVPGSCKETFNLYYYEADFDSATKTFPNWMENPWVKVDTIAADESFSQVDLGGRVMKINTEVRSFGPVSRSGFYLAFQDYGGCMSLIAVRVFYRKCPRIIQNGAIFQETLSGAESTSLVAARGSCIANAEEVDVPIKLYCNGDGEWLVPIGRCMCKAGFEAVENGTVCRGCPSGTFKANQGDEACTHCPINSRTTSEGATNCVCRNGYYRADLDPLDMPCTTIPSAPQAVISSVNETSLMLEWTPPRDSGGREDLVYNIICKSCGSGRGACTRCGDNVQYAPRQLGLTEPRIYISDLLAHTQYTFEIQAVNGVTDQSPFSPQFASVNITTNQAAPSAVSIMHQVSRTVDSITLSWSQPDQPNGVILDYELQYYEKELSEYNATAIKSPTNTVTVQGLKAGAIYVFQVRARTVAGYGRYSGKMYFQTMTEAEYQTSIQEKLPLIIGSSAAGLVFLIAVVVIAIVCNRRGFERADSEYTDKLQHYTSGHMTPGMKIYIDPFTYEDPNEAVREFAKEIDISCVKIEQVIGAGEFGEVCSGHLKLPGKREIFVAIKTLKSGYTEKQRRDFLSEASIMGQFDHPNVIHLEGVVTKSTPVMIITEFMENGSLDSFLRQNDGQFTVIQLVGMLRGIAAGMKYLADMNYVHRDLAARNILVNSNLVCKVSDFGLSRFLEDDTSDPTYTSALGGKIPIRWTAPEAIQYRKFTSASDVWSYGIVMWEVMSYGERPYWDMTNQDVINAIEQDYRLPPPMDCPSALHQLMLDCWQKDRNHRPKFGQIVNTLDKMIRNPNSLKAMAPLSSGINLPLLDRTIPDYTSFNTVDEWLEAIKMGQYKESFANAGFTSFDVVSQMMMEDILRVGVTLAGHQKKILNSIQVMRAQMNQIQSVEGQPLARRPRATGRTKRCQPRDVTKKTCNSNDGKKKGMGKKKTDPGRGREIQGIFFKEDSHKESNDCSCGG

[2] = molecular target: T2, JAK3(JH1domain-catalytic) (Homo sapiens, UniProt P52333); assay: KINOMEscan ScanTK; assay type: binding; details: for inhibition at 1 µM: ScanTK
T2 construct: JAK3(JH1domain-catalytic); purchased Eurofins DiscoverX KINOMEscan (scanTK)
T2 sequence (P52333 822-1124 limits assumed): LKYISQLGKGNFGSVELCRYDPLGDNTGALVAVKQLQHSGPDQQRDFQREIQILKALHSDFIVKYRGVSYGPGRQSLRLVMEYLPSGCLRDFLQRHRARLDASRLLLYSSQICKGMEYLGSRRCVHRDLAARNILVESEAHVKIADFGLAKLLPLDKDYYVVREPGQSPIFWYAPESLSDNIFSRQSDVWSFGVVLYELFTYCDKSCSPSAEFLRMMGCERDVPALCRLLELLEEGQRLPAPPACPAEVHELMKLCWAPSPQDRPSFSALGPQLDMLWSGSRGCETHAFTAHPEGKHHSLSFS

[3] = molecular target: T3, KIT(L576P) (Homo sapiens, UniProt P10721, L576P); assay: KINOMEscan ScanTK; assay type: binding
T3 construct: purchased Eurofins DiscoverX KINOMEscan (scanTK)
T3 sequence (P10721 26-976 L576P): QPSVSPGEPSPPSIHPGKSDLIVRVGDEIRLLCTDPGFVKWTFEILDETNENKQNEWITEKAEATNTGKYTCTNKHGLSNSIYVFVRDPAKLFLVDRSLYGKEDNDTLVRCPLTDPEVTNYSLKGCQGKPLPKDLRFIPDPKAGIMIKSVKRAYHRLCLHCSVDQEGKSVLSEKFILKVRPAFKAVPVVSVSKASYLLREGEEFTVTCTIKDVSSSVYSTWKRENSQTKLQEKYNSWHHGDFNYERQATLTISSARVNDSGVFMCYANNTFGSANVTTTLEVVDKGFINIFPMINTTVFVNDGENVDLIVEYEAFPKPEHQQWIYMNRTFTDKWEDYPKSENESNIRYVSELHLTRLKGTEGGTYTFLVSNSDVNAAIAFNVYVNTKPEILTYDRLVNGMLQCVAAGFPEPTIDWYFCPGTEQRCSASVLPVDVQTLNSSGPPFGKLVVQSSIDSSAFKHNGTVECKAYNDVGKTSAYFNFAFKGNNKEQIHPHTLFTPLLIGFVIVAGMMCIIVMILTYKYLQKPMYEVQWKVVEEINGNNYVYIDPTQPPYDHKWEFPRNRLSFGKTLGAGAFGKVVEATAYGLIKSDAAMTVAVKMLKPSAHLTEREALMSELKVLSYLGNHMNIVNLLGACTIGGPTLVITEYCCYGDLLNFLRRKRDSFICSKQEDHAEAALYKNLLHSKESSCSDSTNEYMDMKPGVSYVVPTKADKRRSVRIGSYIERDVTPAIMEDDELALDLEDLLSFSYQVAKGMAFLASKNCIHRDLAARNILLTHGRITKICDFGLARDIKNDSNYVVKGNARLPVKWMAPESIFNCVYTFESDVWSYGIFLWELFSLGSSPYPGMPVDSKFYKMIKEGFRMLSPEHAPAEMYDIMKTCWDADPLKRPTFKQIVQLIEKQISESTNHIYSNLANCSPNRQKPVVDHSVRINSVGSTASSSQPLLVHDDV

[4] = molecular target: T4, LYN (Homo sapiens, UniProt P07948); assay: KINOMEscan ScanTK; assay type: binding
T4 construct: purchased Eurofins DiscoverX KINOMEscan (scanTK)
T4 sequence (P07948 whole entry): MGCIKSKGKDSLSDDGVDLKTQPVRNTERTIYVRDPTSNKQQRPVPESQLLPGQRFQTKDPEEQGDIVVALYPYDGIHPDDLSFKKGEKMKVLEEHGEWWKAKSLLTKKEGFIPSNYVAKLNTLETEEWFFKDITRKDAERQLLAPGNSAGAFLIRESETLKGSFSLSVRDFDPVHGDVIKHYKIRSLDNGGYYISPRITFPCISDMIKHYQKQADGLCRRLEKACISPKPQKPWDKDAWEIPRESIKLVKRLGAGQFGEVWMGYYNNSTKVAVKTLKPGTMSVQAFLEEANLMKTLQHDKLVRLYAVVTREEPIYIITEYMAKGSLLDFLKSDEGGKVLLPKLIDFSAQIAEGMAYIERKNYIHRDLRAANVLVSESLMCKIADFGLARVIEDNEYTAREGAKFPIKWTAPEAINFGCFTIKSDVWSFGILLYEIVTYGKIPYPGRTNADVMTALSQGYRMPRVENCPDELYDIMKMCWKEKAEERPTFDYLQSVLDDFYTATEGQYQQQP

[5] = molecular target: T5, TRKA (Homo sapiens, UniProt P04629); assay: KINOMEscan ScanTK; assay type: binding
T5 construct: purchased Eurofins DiscoverX KINOMEscan (scanTK)
T5 sequence (P04629 33-796): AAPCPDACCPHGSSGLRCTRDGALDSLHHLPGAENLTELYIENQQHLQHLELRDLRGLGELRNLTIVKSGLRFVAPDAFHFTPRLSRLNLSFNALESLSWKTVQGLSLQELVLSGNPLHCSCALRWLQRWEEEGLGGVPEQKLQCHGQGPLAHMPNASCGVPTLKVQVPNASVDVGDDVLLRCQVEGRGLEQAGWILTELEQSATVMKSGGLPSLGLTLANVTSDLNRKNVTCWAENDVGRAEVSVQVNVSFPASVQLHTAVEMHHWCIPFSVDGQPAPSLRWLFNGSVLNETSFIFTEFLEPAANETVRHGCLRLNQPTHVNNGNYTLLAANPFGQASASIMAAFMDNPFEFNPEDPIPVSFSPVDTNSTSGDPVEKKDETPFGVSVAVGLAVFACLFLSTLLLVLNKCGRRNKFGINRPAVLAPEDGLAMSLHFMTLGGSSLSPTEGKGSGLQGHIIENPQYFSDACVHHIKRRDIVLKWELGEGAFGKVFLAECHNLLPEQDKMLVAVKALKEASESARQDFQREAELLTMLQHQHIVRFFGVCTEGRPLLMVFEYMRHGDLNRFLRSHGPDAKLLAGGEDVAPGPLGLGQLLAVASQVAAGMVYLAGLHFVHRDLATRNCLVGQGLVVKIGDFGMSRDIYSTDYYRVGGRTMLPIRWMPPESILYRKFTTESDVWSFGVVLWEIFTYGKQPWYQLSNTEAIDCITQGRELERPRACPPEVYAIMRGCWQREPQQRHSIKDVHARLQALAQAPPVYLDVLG

[6] = tested on: TMD8 cells; assay: RNA-seq gene expression; details: TMD8, 1 μM, 8 h; for number of genes reduced vs DMSO: FDR < 0.01, log2FC < -0.5; for number of genes increased vs DMSO: FDR < 0.01, log2FC > 0.5
[7] = molecular target: T6, EGFR(L858R,T790M) (Homo sapiens, UniProt P00533, L858R/T790M); assay: KINOMEscan ScanTK; assay type: binding
T6 construct: purchased Eurofins DiscoverX KINOMEscan (scanTK)
T6 sequence (P00533 25-1210 T790M/L858R): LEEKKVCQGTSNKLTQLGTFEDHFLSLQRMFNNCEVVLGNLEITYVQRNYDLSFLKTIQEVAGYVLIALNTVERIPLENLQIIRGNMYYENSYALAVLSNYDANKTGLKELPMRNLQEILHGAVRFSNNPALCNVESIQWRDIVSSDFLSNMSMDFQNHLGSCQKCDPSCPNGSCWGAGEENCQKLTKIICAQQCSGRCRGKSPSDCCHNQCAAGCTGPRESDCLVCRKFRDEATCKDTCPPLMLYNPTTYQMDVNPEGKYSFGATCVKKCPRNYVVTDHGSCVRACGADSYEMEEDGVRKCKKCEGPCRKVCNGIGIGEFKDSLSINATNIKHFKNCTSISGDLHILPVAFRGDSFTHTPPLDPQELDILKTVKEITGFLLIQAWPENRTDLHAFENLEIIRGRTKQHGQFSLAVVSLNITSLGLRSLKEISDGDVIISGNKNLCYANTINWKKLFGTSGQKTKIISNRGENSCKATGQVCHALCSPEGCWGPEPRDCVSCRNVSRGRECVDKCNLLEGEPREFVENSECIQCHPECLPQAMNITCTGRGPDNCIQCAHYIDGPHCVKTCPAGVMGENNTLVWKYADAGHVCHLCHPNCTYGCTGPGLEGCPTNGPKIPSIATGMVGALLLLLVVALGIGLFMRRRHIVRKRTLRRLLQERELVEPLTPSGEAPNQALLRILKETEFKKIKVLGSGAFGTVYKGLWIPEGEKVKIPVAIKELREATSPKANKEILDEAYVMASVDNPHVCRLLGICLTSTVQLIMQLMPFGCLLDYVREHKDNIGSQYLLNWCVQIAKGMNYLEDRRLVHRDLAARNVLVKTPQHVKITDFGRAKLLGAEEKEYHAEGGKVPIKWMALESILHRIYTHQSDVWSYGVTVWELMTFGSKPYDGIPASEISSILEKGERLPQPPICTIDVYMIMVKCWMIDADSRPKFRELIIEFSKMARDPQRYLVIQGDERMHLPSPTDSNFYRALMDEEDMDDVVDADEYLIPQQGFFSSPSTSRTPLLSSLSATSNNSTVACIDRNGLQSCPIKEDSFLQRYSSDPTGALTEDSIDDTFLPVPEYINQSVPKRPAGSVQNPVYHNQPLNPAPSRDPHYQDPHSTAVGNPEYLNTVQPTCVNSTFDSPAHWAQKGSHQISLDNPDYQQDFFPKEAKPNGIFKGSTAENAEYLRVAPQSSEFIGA

[8] = molecular target: T7, KIT(A829P) (Homo sapiens, UniProt P10721, A829P); assay: KINOMEscan ScanTK; assay type: binding
T7 construct: purchased Eurofins DiscoverX KINOMEscan (scanTK)
T7 sequence (P10721 26-976 A829P): as the sequence (P10721 26-976 L576P) above, with P551L, A804P counted along it

[9] = molecular target: T8, TNK2 (Homo sapiens, UniProt Q07912); assay: KINOMEscan ScanTK; assay type: binding
T8 construct: purchased Eurofins DiscoverX KINOMEscan (scanTK)
T8 sequence (Q07912 whole entry): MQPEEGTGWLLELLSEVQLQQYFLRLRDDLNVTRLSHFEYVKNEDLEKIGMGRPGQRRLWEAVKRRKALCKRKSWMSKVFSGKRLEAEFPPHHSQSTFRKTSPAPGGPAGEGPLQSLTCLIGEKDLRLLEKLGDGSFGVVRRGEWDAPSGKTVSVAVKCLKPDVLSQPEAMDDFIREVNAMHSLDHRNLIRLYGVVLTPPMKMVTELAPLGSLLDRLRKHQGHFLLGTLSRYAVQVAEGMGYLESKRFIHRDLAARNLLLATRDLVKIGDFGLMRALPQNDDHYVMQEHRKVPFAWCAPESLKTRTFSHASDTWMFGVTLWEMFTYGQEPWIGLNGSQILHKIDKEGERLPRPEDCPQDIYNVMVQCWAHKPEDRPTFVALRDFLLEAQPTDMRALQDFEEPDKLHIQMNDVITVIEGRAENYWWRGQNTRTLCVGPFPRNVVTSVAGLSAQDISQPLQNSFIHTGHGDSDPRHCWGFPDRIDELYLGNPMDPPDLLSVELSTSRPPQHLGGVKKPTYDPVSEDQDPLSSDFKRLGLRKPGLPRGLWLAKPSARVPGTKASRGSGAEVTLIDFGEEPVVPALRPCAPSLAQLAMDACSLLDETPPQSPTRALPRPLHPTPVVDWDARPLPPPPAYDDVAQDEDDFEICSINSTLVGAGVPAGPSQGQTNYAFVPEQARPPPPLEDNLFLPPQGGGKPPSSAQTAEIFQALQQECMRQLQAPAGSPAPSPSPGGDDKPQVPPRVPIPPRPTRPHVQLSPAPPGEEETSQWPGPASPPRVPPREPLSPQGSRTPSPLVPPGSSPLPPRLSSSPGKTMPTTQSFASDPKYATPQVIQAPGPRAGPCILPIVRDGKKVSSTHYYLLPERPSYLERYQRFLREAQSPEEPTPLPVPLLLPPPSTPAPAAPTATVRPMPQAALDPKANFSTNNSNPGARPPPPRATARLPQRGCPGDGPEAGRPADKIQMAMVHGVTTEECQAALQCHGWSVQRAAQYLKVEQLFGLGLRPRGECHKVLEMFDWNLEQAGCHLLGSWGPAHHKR

[10] = @1000nM, JAK3(JH1domain-catalytic), read-out: %Control
[11] = JAK3(JH1domain-catalytic), read-out: %Control @1000nM

| SMILES | remaining binding at 1 µM ([1]; @1000nM, read-out: %Control) [%] | remaining binding at 1 µM ([1]; read-out: %Control @1000nM) [%] | remaining binding at 1 µM [2, 10] [%] | remaining binding at 1 µM [2, 11] [%] | inhibition at 1 µM [2] [%] | remaining binding at 1 µM ([3]; @1000nM, read-out: %Control) [%] | remaining binding at 1 µM ([3]; read-out: %Control @1000nM) [%] | remaining binding at 1 µM ([4]; @1000nM, read-out: %Control) [%] | remaining binding at 1 µM ([4]; read-out: %Control @1000nM) [%] | number of genes unchanged vs DMSO [6] [genes] | number of genes reduced vs DMSO [6] [genes] | number of genes increased vs DMSO [6] [genes] | also measured |
| --- | --- | --- | --- | --- | --- | --- | --- | --- | --- | --- | --- | --- | --- |
| C=CC(=O)N1CCC[C@@H](n2nc(-c3ccc(Oc4ccccc4)cc3)c3c(N)ncnc32)C1 [Compound 1g, Ibrutinib, reference compound] | 100 | 100 | 5.5 | 5.5 | 95 | 32 | 32 | 16 | 16 | 14846 | 125 | 76 | remaining binding at 1 µM ([5]; read-out: %Control): 85%; remaining binding at 1 µM ([5]; read-out: %Control @1000nM): 85% |
| CCOC(=O)c1cnc(S(C)(=O)=O)nc1N1CCC[C@@H](n2nc(-c3ccc(Oc4ccccc4)cc3)c3c(N)ncnc32)C1 [Compound 8c, Ethyl (R)-4-(3-(4-Amino-3-(4-phenoxyphenyl)-1H-pyrazolo[3,4-d]pyrimidin-1-yl)piperidin-1-yl)-2-(methylsulfonyl)pyrimidine-5-carboxylate] | 98 | 98 | 100 | 100 | < 1 | 64 | 64 | 72 | 72 | 15047 | 0 | 0 | difference in % of control versus compound Ib at 1 µM ([7]; @1000nM): 77%; remaining binding at 1 µM ([7]; @1000nM, read-out: %Control): 87%; remaining binding at 1 µM ([7]; read-out: %Control @1000nM): 87%; %Control difference from compound Ib at 1 µM ([1]; @1000nM): -2%; difference in %Control from compound Ib at 1 µM ([2]; @1000nM, JAK3(JH1domain-catalytic)): 94.5%; remaining binding at 1 µM ([8]; @1000nM, read-out: %Control): 73%; remaining binding at 1 µM ([8]; read-out: %Control @1000nM): 73%; difference in %Control versus Ib at 1 µM ([3]; @1000nM, read-out: % difference (compound - Ib %Control)): 32%; remaining binding at 1 µM ([9]; @1000nM, read-out: %Control): 94%; remaining binding at 1 µM ([9]; read-out: %Control @1000nM): 94%; difference in % of control versus compound Ib at 1 µM ([5]; @1000nM, TRKA): 8%; remaining binding at 1 µM ([5]; @1000nM, TRKA, read-out: %Control): 93%; remaining binding at 1 µM ([5]; TRKA, read-out: %Control @1000nM): 93% |
